Experimental data as given in US12472197B2 (priority 2020, dated 2025).
Like-named read-outs stand apart in the source and are kept apart here.

How the values were obtained:
[1] = system: SARS-CoV (Urbani strain); format: cell-based; conditions: Vero-76 cells
[2] = system: MERS-CoV (Jordan strain); format: cell-based; conditions: Vero-76 cells
[3] = system: SARS-CoV-2 (WA1/2020 strain); assay: Virus yield reduction (VYR) assay, SARS-CoV-2 in Vero76 cells; format: cell-based; conditions: for EC90: Vero76 cells
[4] = Phase 1 single ascending dose study, intravenous administration in healthy human subjects; format: in vivo; conditions: for AUC0-inf / AUC24 / CL / Cmax / Vz / t1/2 / AUCt: geometric mean, preliminary; for AUCt: t 120 h to 480 h
Experimental: The agent used in this Example was compound A (the compound of formula I, where A is NH2 and B is H as the HCL salt). A phase 1 double-blind, placebo-controlled, single ascending dose study was conducted to evaluate the safety, tolerability, and pharmacokinetics of Compound A administered by intravenous (IV) administration in healthy human subjects. Four cohorts were administered the study drug at the following doses: 5 mg/kg, 10 mg/kg, 15 mg/kg, and 20 mg/kg. Eight subjects received a single IV dose per cohort (6 subjects received Compound A; 2 subjects received matching placebo). Subject dosing was staggered as a safety precaution.
The plasma PK concentration-time profile of Compound A at all doses was characterized by an initial rapid distribution and clearance phase, and a slow terminal clearance phase. […] The inter-subject variability in exposure (Cmax and AUC) was low, as reflected in the geometric mean coefficients of variance (CVs) on these parameters. No subjects met any stopping criteria for any cohort.

[5] = NOAEL exposure in NHP; format: in vivo; conditions: 30 mg/kg dose
[6] = system: Vero76 cells
[7] = human, in vivo
[8] = human, in vivo; remark: listed apart in the source
[9] = human, in vivo; remark: listed apart in the source
[10] = system: SARS-CoV-2 (WA1/2020 isolate); assay: SARS-CoV-2 hamster model of infection; conditions: for lung tissue histopathology (total histology score) vs vehicle control: Days +3 and +7; for lung viral burden lower than vehicle control: 100 mg/kg BID i.p., Day 3 post-infection
[11] = system: SARS-CoV-2; assay: Randomized placebo-controlled dose-ranging study, IV infusion in hospitalized adults with COVID-19 (Part 1)
[12] = EC50 adjusted with CLE, read-out: Adjusted EC50
[13] = NR uptake, MOI 0.001, 3 days, read-out: EC50

## Nc1ncnc2c([C@@H]3N[C@H](CO)[C@@H](O)[C@H]3O)c[nH]c12 [Compound A]
[1]; [12]
  EC50: 4.6 µM
[1]; [13]
  EC50: 57.7 µM
[2]; [12]
  EC50: 2.15 µM
[2]; [13]
  EC50: 26.9 µM
[3]; EC90 adjusted with CLE, read-out: Adjusted EC90
  EC90: 0.87 µM
[3]; SI=CC50/EC90, Vero76 cells
  SI: >27
[3]; VYR at day 3, MOI 0.002, compound added 24 hours prior to infection, read-out: EC90
  EC90: 10.9 µM
[4]; single IV dose 5 mg/kg
  AUC0-inf: 21200 ng·h/mL
  AUC24: 10950 ng·h/mL
  CL: 17.1 L/h
  Cmax: 5540 ng/mL
  Vz: 2725 L
  t1/2: 111 h
  AUCt: 17100 ng·h/mL
[4]; single IV dose 10 mg/kg
  AUC0-inf: 37100 ng·h/mL
  AUC24: 21070 ng·h/mL
  CL: 20.7 L/h
  Cmax: 10300 ng/mL
  Vz: 3049 L
  t1/2: 114.5 h
  AUCt: 32400 ng·h/mL
[4]; single IV dose 15 mg/kg
  AUC0-inf: 65900 ng·h/mL
  AUC24: 34370 ng·h/mL
  CL: 16.7 L/h
  Cmax: 17700 ng/mL
  Vz: 4138 L
  t1/2: 182.5 h
  AUCt: 59900 ng·h/mL
[4]; single IV dose 20 mg/kg
  AUC0-inf: 81200 ng·h/mL
  AUC24: 44770 ng·h/mL
  CL: 17.9 L/h
  Cmax: 20500 ng/mL
  Vz: 4010 L
  t1/2: 133.5 h
  AUCt: 73400 ng·h/mL
[4]; single IV dose 5-20 mg/kg, healthy subjects
  safety and tolerability: generally safe and well tolerated
[4]; single IV doses 5-20 mg/kg
  dose proportionality of Cmax, AUCt and AUCinf: increased in dose-proportional manner
[5]
  NOAEL exposure: approximately 52,500 ng*h/mL
[6]
  CC50: > 296 µM
[7]
  dose proportionality of exposure: dose-proportional and linear with increasing dose
  safety and tolerability: generally safe and well tolerated
  time after administration at which plasma concentrations were maximal: 1 to 2 h
[7]; im
  increase in exposure (AUC) with repeat dosing: approximately 1.5 fold
[7]; im, 2.5 mg/kg
  t1/2: 104 (15.9) h
[7]; im, 5 mg/kg
  t1/2: 85.7 (17.3) h
[7]; im, 10 mg/kg
  AUC0-24: 20300 ng·h/mL
  AUCtau: 34500 ng·h/mL
  Cmax: 7980 ng/mL
  Tmax: 0.375 h
  t1/2: 113 (26.4) h
[8]
  safety and tolerability: generally safe and well tolerated
[9]
  safety and tolerability: generally safe and well tolerated
[10]; Group 1 (first dose −24 hours)
  lung tissue histopathology (total histology score) vs vehicle control: reduced/no tissue histopathology as compared with vehicle control
[10]; Group 1, 100 mg/kg BID i.p., first dose −24 hr
  animals that achieved PFU<10 (lower limit of quantification) in OP swabs: 62.5%
[10]; Group 1, 100 mg/kg BID i.p., first dose −24 hr relative to infection
  weight loss: < 5%
[10]; Group 2 (first dose +1.5 hours)
  lung tissue histopathology (total histology score) vs vehicle control: reductions relative to vehicle control
[10]; Group 3 (first dose +24 hours)
  lung viral burden lower than vehicle control: ~0.66 log
[10]; Groups 1-3, 100 mg/kg BID i.p.
  clinical scores, adverse impact of dosing: no adverse impact
[10]; Groups 1 and 2 (first dose −24 and +1.5 hours)
  lung viral burden lower than vehicle control: 1.4-1.6 log
[11]; Cohorts 1-3, IV loading/maintenance regimens for 7 days, hospitalized COVID-19 patients
  safety and tolerability: safe and generally well tolerated
[11]; Cohorts 1-3, Part 1 not sized for efficacy
  clinical efficacy compared to placebo: no clinical efficacy benefit
[11]; Cohorts 1-3, apparent dose-dependent manner
  decline in viral RNA levels in the respiratory tract: more rapid decline in viral RNA levels in the respiratory tract
[11]; Cohorts 1-3, shortest in Cohorts 2 and 3
  time to a negative viral RNA result in LRT samples compared to placebo: shorter time to a negative viral RNA result
